Results taken from patent US20150075790A1, “OILFIELD BIOCIDE” (SCHLUMBERGER TECHNOLOGY CORPORATION, priority 2013, published 2015).

Tests used:
Assay type in all cases: physicochemical
[1] = test system: bacteria or other biological agents known to degrade such fluids; test: Viscosity of guar fluid after aging at 25° C. in a non-sterile environment (biocidal activity on a guar system); settings: relatively dilute concentrations; period of at least 6 days
From the text: For purposes herein, aging of a fluid (e.g., a solution or mixture) in a non-sterile environment for purposes of determining the inhibition of biological degradation of the fluid may include the steps of preparing and characterizing a fluid in a non-sterile environment followed by allowing the fluid to age in the non-sterile environment (or non-sterile container) which is, or which has been in fluid communication with an external environment such that the fluid has been exposed to the ambient environment which inherently contains bacteria or other biological agents known to degrade such fluids at room temperature (i.e., 25° C.), followed by characterizing the aged fluid in essentially the same way under the same conditions using the same method utilized to characterize the fluid initially. […] The biocidal activity of a 2-oxo-aldehyde having 3 or more carbon atoms such as methylglyoxal on a guar system was evaluated. […] Samples were maintained at room temperature and their viscosities were measured directly after their preparation (in a non-sterile environment) and then again determined after the different periods of time aging at 25° C. in a non-sterile environment as indicated. The viscosity of sample B was determined initially and then again after 1, 2, 3, and 6 days of aging at 25° C. in a non-sterile environment, i.e., in a covered beaker on a lab bench. […]

[2] = Vortex closure time of boron-crosslinked guar solution, initially and after aging
Method: The effects of the biocide on cross linking were evaluated. It is known that chemical contamination may have a detrimental impact on the cross linking of guar and other polymers. The impact of 2-oxo-aldehyde such as MGO on guar crosslinking was evaluated using the vortex closure time of a solution of guar. Vortex closure time is determined by charging a portion of the gel in a blender and measuring the time required for the vortex produced upon initiation of mixing the solution in the blender to close. […] In other words, a non-crosslinked or minimally crosslinked mixture with have an infinite vortex closure time. The higher the level of crosslinking, the shorter the vortex closure time once mixing is initiated.
A comparative sample E and a sample F were prepared by mixing 0.5 g of guar in 99.5 g water and mixing in the blender. Sample F further included 0.4 g MGO solution (0.16 g of MGO). No vortex closure occurred while mixing the uncrosslinked samples. Next, an amount of a Boron based crosslinking agent was added to each of the mixing samples and the initial vortex closure time was measured as shown in Table 4. The vortex closure time was then measured after 4 days of aging at room temperature (25° C.) in a non-sterile environment, and then again after 6 days of aging at 25° C. […] The data also confirm that biological degradation has a pronounced effect on cross-linking.

[3] = Breaking schedule of crosslinked guar gel with oxidizer (breaker), viscosity at 66° C.; settings: shear rate 100 sec^-1, 66° C. (150° F.)
Method: Two samples were evaluated to determine the impact of the MGO on the breaking schedule of a guar solution. The viscosity of each sample was measured at a shear rate of 100 sec^−1 while aging at 66° C. (150° F.) in the presence of an oxidizer (a breaker) to determine the effect 2-oxo-aldehyde such as MGO has on gel stability. The data is shown graphically in FIG. 4.

[4] = test system: biological degradation of the concentrated guar fluids; test: Viscosity of highly concentrated guar fluids (water in water emulsion) after aging and dilution; settings: ~200 ppt guar
Method: The efficacy of 2-oxo-aldehyde such as MGO as a biocide was investigated on highly concentrated guar fluids (˜200 ppt) produced as a water in water emulsion. Comparative sample G and sample H were prepared without and with MGO respectively. After dilution of the concentrated fluids (1 part of sample to 4 parts of water) their rheological properties were measured after 0, 1, 2, 3, and 4 days. The data are shown graphically in FIG. 5. […] After three days of aging at 25° C., comparative sample G (without MGO) presents a much lower viscosity than its initial value at day 0, i.e. the fluid in comparative sample G has been degraded.

CC(=O)C=O [MGO, methylglyoxal]
Effectiveness in reducing biological degradation of the guar fluid [1]: effective in reducing biological degradation
Impact on the vortex closure time ([2]; 160 mg/L (0.4 gpt), even after several days): does not have any impact on the vortex closure time
Interference with crosslinking of the polymer ([2]; boron based crosslinking agent, guar): does not prevent or interfere with the crosslinking
Impact on the breaking schedule of a guar gel (FIG. 4) [3]: does not have a significant impact on the breaking schedule
Prevention of biological degradation of concentrated guar fluids [4]: has prevented biological degradation
